Biological target: T1, hERG current (Homo sapiens, UniProt Q12809)
T1 construct: expressed in transfected cells; host or cells: CHO-K1 cells expressing hERG (Persson et al., J. Cardiovasc. Electrophysiol. 16, 329-341, 2005)
Test: hERG analysis Method 2 (IonWorks HT, CHO cells)
Format: cell-based
Details: hERG-expressing CHO cells, ~21° C., 8-point non-cumulative curves
Protocol: The hERG-expressing Chinese hamster ovary K1 (CHO) cells described by (Persson, Carlsson, Duker, & Jacobson, 2005) are grown to semi-confluence at 37° C. in a humidified environment (5% CO2) in F-12 Ham medium containing L-glutamine, 10% foetal calf serum (FCS) and 0.6 mg/mL hygromycin (all available from Sigma-Aldrich). Prior to use, the monolayer is washed using a pre-warmed (37° C.) 3 mL aliquot of Versene 1:5,000 (Invitrogen). After aspiration of this solution the flask is incubated at 37° C. in an incubator with a further 2 mL of Versene 1:5,000 for a period of 6 minutes. Cells are then detached from the bottom of the flask by gentle tapping and 10 mL of Dulbecco's Phosphate-Buffered Saline containing calcium (0.9 mM) and magnesium (0.5 mM) (PBS; Invitrogen) is then added to the flask and aspirated into a 15 mL centrifuge tube prior to centrifugation (50 g, for 4 mins). The resulting supernatant is discarded and the pellet gently re-suspended in 3 mL of PBS. A 0.5 mL aliquot of cell suspension is removed and the number of viable cells (based on trypan blue exclusion) is determined in an automated reader (Cedex; Innovatis) so that the cell re-suspension volume can be adjusted with PBS to give the desired final cell concentration. It is the cell concentration at this point in the assay that is quoted when referring to this parameter. […]

T1 sequence (Q12809 whole entry): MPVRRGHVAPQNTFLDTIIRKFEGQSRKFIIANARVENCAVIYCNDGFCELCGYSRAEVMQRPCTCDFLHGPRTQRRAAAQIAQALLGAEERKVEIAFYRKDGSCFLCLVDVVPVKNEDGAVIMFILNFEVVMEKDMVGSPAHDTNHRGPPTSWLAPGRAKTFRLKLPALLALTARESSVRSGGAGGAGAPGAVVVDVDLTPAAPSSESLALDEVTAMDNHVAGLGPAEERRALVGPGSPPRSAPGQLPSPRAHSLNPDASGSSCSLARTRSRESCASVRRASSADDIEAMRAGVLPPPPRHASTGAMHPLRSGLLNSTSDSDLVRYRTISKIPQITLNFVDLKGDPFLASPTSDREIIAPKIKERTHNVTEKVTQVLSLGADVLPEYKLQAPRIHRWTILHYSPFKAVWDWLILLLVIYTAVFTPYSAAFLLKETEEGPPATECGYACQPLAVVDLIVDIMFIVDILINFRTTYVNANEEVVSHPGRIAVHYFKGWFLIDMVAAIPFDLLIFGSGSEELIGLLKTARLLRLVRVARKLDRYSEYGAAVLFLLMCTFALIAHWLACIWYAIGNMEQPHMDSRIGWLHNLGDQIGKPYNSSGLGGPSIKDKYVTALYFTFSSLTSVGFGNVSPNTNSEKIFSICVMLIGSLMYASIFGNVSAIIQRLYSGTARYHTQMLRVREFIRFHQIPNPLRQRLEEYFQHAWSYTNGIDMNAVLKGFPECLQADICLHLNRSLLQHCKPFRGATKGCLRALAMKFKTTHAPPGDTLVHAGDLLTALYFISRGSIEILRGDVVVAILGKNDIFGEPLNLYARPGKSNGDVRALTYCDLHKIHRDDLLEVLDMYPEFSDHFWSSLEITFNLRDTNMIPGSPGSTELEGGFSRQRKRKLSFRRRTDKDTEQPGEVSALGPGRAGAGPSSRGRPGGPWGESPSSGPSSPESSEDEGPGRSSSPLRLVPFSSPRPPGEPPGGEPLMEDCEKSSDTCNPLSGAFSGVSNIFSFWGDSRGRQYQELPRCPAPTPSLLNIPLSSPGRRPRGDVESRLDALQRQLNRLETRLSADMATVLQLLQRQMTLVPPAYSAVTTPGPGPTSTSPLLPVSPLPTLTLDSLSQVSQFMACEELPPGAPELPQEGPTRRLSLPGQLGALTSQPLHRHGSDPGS

Compound | IC50 [µM]
CCCCCNc1nc(N)nc(C)c1Cc1ccc(N2CCN(C)CC2=O)cc1OC [Example 2, 1-(4-{[2-Amino-4-methyl-6-(pentylamino)pyrimidin-5-yl]methyl}-3-methoxyphenyl)-4-methylpiperazin-2-one] | 5.41
CCC[C@@H](CCO)Nc1nc(N)nc(C)c1Cc1ccc(N2CCN(C)CC2=O)cc1OC [Example 3, (S)-1-(4-{[2-Amino-4-(1-hydroxyhexan-3-ylamino)-6-methylpyrimidin-5-yl]methyl}-3-methoxyphenyl)-4-methylpiperazin-2-one] | > 33

From patent US20130267532A1, “CYCLIC AMIDE COMPOUNDS AND THEIR USE IN THE TREATMENT OF DISEASE” (priority 2010, published 2013)
